Experimental data: ChEMBL document CHEMBL4229379, “Synthesis and structure-activity relationship of novel bisindole amidines active against MDR Gram-positive and Gram-negative bacteria” (Eur J Med Chem, 2018)
Converted amounts (≈) assume the structure as drawn.

Experiments:
[1] = system: Staphylococcus epidermidis; experiment: Antibacterial activity against methicillin-sensitive Staphylococcus epidermidis ATCC 12228 after 18 hrs by CLSI broth microdilution method; assay type: functional; conditions: ATCC 12228, 18 h
[2] = system: Staphylococcus epidermidis; experiment: Antibacterial activity against methicillin-resistant Staphylococcus epidermidis 12-8 after 18 hrs by CLSI broth microdilution method; assay type: functional; conditions: 12-8, 18 h
Staphylococcus aureus [3] = experiment: Antibacterial activity against methicillin-sensitive Staphylococcus aureus ATCC 29213 after 18 hrs by CLSI broth microdilution method; assay type: functional; conditions: ATCC 29213, 18 h
Staphylococcus aureus [4] = experiment: Antibacterial activity against methicillin-resistant Staphylococcus aureus 12-33 after 18 hrs by CLSI broth microdilution method; assay type: functional; conditions: 12-33, 18 h
Enterococcus faecalis [5] = experiment: Antibacterial activity against vancomycin-sensitive Enterococcus faecalis ATCC 29212 after 18 hrs by CLSI broth microdilution method; assay type: functional; conditions: ATCC 29212, 18 h
Enterococcus faecalis [6] = experiment: Antibacterial activity against vancomycin-resistant Enterococcus faecalis 09-9 after 18 hrs by CLSI broth microdilution method; assay type: functional; conditions: 09-9, 18 h
Enterococcus faecium [7] = experiment: Antibacterial activity against vancomycin-resistant Enterococcus faecium ATCC 700221 after 18 hrs by CLSI broth microdilution method; assay type: functional; conditions: ATCC 700221, 18 h
Enterococcus faecium [8] = experiment: Antibacterial activity against vancomycin-sensitive Enterococcus faecium 12-3 after 18 hrs by CLSI broth microdilution method; assay type: functional; conditions: 12-3, 18 h
Escherichia coli [9] = experiment: Antibacterial activity against extended-spectrum beta-lactamase deficient Escherichia coli ATCC 25922 after 18 hrs by CLSI broth microdilution method; assay type: functional; conditions: ATCC 25922, 18 h
Escherichia coli [10] = experiment: Antibacterial activity against extended-spectrum beta-lactamase harboring Escherichia coli 12-15 after 18 hrs by CLSI broth microdilution method; assay type: functional; conditions: 12-15, 18 h
Klebsiella pneumoniae [11] = experiment: Antibacterial activity against extended-spectrum beta-lactamase harboring Klebsiella pneumoniae ATCC 700603 after 18 hrs by CLSI broth microdilution method; assay type: functional; conditions: Klebsiella pneumoniae, 700603, 18 h
Klebsiella pneumoniae [12] = experiment: Antibacterial activity against new delhi metallo-beta-lactamase-1 harboring Klebsiella pneumoniae ATCC BAA-2146 after 18 hrs by CLSI broth microdilution method; assay type: functional; conditions: ATCC BAA-2146, 18 h
Klebsiella pneumoniae [13] = experiment: Antibacterial activity against extended-spectrum beta-lactamase harboring Klebsiella pneumoniae 12-8 after 18 hrs by CLSI broth microdilution method; assay type: functional; conditions: 12-8, 18 h
Pseudomonas aeruginosa [14] = experiment: Antibacterial activity against Pseudomonas aeruginosa ATCC 27853 after 18 hrs by CLSI broth microdilution method; assay type: functional; conditions: ATCC 27853, 18 h
[15] = system: Acinetobacter calcoaceticus; experiment: Antibacterial activity against Acinetobacter calcoaceticus ATCC 19606 after 18 hrs by CLSI broth microdilution method; assay type: functional; conditions: ATCC 19606, 18 h
Enterobacter cloacae = experiment: Antibacterial activity against Enterobacter cloacae ATCC 43560 after 18 hrs by CLSI broth microdilution method; assay type: functional; conditions: ATCC 43560, 18 h
Proteus mirabilis = experiment: Antibacterial activity against Proteus mirabilis 12-6 after 18 hrs by CLSI broth microdilution method; assay type: functional; conditions: 12-6, 18 h
[16] = Cytotoxicity against HEK293T cells assessed as reduction in cell viability after 48 hrs by MTS assay; assay type: cell-based, HEK-293T; conditions: human
[17] = system: Staphylococcus epidermidis; experiment: Antibacterial activity against methicillin-sensitive Staphylococcus epidermidis 12-6 after 18 hrs by CLSI broth microdilution method; assay type: functional; conditions: 12-6, 18 h
Staphylococcus aureus [18] = experiment: Antibacterial activity against methicillin-resistant Staphylococcus aureus ATCC 33591 after 18 hrs by CLSI broth microdilution method; assay type: functional; conditions: ATCC 33591, 18 h
Staphylococcus aureus [19] = experiment: Antibacterial activity against methicillin-sensitive Staphylococcus aureus 15 after 18 hrs by CLSI broth microdilution method; assay type: functional; conditions: Staphylococcus aureus, 15, 18 h
Staphylococcus aureus [20] = experiment: Antibacterial activity against methicillin-sensitive Staphylococcus aureus 12-28 after 18 hrs by CLSI broth microdilution method; assay type: functional; conditions: 12-28, 18 h
Enterococcus faecalis [21] = experiment: Antibacterial activity against vancomycin-resistant Enterococcus faecalis ATCC 51299 after 18 hrs by CLSI broth microdilution method; assay type: functional; conditions: ATCC 51299, 18 h
Enterococcus faecalis [22] = experiment: Antibacterial activity against vancomycin-sensitive Enterococcus faecalis 12-5 after 18 hrs by CLSI broth microdilution method; assay type: functional; conditions: 12-5, 18 h
Enterococcus faecium [23] = experiment: Antibacterial activity against vancomycin-resistant Enterococcus faecium 12-1 after 18 hrs by CLSI broth microdilution method; assay type: functional; conditions: 12-1, 18 h
Escherichia coli [24] = experiment: Antibacterial activity against extended-spectrum beta-lactamase deficient Escherichia coli 1515 after 18 hrs by CLSI broth microdilution method; assay type: functional; conditions: Escherichia coli, 1515, 18 h
Escherichia coli [25] = experiment: Antibacterial activity against extended-spectrum beta-lactamase deficient Escherichia coli 12-14 after 18 hrs by CLSI broth microdilution method; assay type: functional; conditions: 12-14, 18 h
Klebsiella pneumoniae [26] = experiment: Antibacterial activity against extended-spectrum beta-lactamase deficient Klebsiella pneumoniae 7 after 18 hrs by CLSI broth microdilution method; assay type: functional; conditions: Klebsiella pneumoniae, 7, 18 h
Klebsiella pneumoniae [27] = experiment: Antibacterial activity against extended-spectrum beta-lactamase deficient Klebsiella pneumoniae 12-4 after 18 hrs by CLSI broth microdilution method; assay type: functional; conditions: 12-4, 18 h
Pseudomonas aeruginosa [28] = experiment: Antibacterial activity against Pseudomonas aeruginosa PAO1 after 18 hrs by CLSI broth microdilution method; assay type: functional; conditions: PAO1, 18 h
Pseudomonas aeruginosa [29] = experiment: Antibacterial activity against Pseudomonas aeruginosa 12-16 after 18 hrs by CLSI broth microdilution method; assay type: functional; conditions: 12-16, 18 h
Klebsiella aerogenes = experiment: Antibacterial activity against Enterobacter aerogenes ATCC 13048 after 18 hrs by CLSI broth microdilution method; assay type: functional; conditions: ATCC 13048, 18 h
Serratia marcescens = experiment: Antibacterial activity against Serratia marcescens ATCC 21074 after 18 hrs by CLSI broth microdilution method; assay type: functional; conditions: ATCC 21074, 18 h
Providencia rettgeri = experiment: Antibacterial activity against Providencia rettgeri ATCC 31052 after 18 hrs by CLSI broth microdilution method; assay type: functional; conditions: ATCC 31052, 18 h
Proteus vulgaris = experiment: Antibacterial activity against Proteus vulgaris ATCC 29905 after 18 hrs by CLSI broth microdilution method; assay type: functional; conditions: ATCC 29905, 18 h
[30] = system: Stenotrophomonas maltophilia; experiment: Antibacterial activity against Stenotrophomonas maltophilia ATCC 13636 after 18 hrs by CLSI broth microdilution method; assay type: functional; conditions: ATCC 13636, 18 h
Citrobacter freundii = experiment: Antibacterial activity against Citrobacter freundii ATCC 43864 after 18 hrs by CLSI broth microdilution method; assay type: functional; conditions: ATCC 43864, 18 h

Row | SMILES | MIC [1] | MIC [2] | MIC (Staphylococcus aureus [3]) | MIC (Staphylococcus aureus [4]) | MIC (Enterococcus faecalis [5]) | MIC (Enterococcus faecalis [6]) | MIC (Enterococcus faecium [7]) | MIC (Enterococcus faecium [8]) | MIC (Escherichia coli [9]) | MIC (Escherichia coli [10]) | MIC (Klebsiella pneumoniae [11]) | MIC (Klebsiella pneumoniae [12]) | MIC (Klebsiella pneumoniae [13]) | MIC (Pseudomonas aeruginosa [14]) | MIC [15] | MIC (Enterobacter cloacae) | MIC (Proteus mirabilis) | CC50 at 48 h [16] | MIC [17] | MIC (Staphylococcus aureus [18]) | further results
1 | CCC(C)NC(=N)c1ccc2cc(-c3cncc(-c4cc5ccc(C(=N)NC(C)CC)cc5[nH]4)c3)[nH]c2c1 (stereo unspecified) | 8 µg/mL (≈ 15.8 µM) | 8 µg/mL (≈ 15.8 µM) | 8 µg/mL (≈ 15.8 µM) | 16 µg/mL (≈ 31.6 µM) | > 64 µg/mL | > 64 µg/mL | > 64 µg/mL | > 64 µg/mL | > 64 µg/mL | > 64 µg/mL | > 64 µg/mL | > 64 µg/mL | > 64 µg/mL | > 64 µg/mL | > 64 µg/mL | > 64 µg/mL | > 64 µg/mL | 22.8 µg/mL (≈ 45.1 µM) | 8 µg/mL (≈ 15.8 µM) | 8 µg/mL (≈ 15.8 µM) | MIC (Staphylococcus aureus [19]): 16 µg/mL (≈ 31.6 µM); MIC (Staphylococcus aureus [20]): 16 µg/mL (≈ 31.6 µM); MIC (Enterococcus faecalis [21]): > 64 µg/mL; MIC (Enterococcus faecalis [22]): > 64 µg/mL; MIC (Enterococcus faecium [23]): 64 µg/mL (≈ 127 µM); MIC (Escherichia coli [24]): > 64 µg/mL; MIC (Escherichia coli [25]): > 64 µg/mL; MIC (Klebsiella pneumoniae [26]): > 64 µg/mL; MIC (Klebsiella pneumoniae [27]): > 64 µg/mL; MIC (Pseudomonas aeruginosa [28]): > 64 µg/mL; MIC (Pseudomonas aeruginosa [29]): > 64 µg/mL; MIC (Klebsiella aerogenes): > 64 µg/mL; MIC (Serratia marcescens): > 64 µg/mL; MIC (Providencia rettgeri): > 64 µg/mL; MIC (Proteus vulgaris): > 64 µg/mL; MIC [30]: > 64 µg/mL; MIC (Citrobacter freundii): > 64 µg/mL
2 | c1cc2cc(-c3ccc(-c4cc5ccc(C6=NCCCN6)cc5[nH]4)cc3)[nH]c2cc1C1=NCCCN1 | 0.25 µg/mL (≈ 0.529 µM) | 0.25 µg/mL (≈ 0.529 µM) | 0.25 µg/mL (≈ 0.529 µM) | 0.25 µg/mL (≈ 0.529 µM) | 0.5 µg/mL (≈ 1.06 µM) | 0.5 µg/mL (≈ 1.06 µM) | 0.25 µg/mL (≈ 0.529 µM) | 1 µg/mL (≈ 2.12 µM) | 4 µg/mL (≈ 8.46 µM) | 8 µg/mL (≈ 16.9 µM) | 32 µg/mL (≈ 67.7 µM) | 16 µg/mL (≈ 33.9 µM) | 8 µg/mL (≈ 16.9 µM) | 4 µg/mL (≈ 8.46 µM) | 64 µg/mL (≈ 135 µM) | 8 µg/mL (≈ 16.9 µM) | 128 µg/mL (≈ 271 µM) | 4.33 µg/mL (≈ 9.16 µM) | 0.25 µg/mL (≈ 0.529 µM) | 0.25 µg/mL (≈ 0.529 µM) | MIC (Staphylococcus aureus [19]): 0.25 µg/mL (≈ 0.529 µM); MIC (Staphylococcus aureus [20]): 0.25 µg/mL (≈ 0.529 µM); MIC (Enterococcus faecalis [21]): 0.5 µg/mL (≈ 1.06 µM); MIC (Enterococcus faecalis [22]): 0.5 µg/mL (≈ 1.06 µM); MIC (Enterococcus faecium [23]): 0.25 µg/mL (≈ 0.529 µM); MIC (Escherichia coli [24]): 8 µg/mL (≈ 16.9 µM); MIC (Escherichia coli [25]): 4 µg/mL (≈ 8.46 µM); MIC (Klebsiella pneumoniae [26]): 8 µg/mL (≈ 16.9 µM); MIC (Klebsiella pneumoniae [27]): 8 µg/mL (≈ 16.9 µM); MIC (Pseudomonas aeruginosa [28]): 4 µg/mL (≈ 8.46 µM); MIC (Pseudomonas aeruginosa [29]): 16 µg/mL (≈ 33.9 µM); MIC (Klebsiella aerogenes): 8 µg/mL (≈ 16.9 µM); MIC (Serratia marcescens): 16 µg/mL (≈ 33.9 µM); MIC (Providencia rettgeri): 8 µg/mL (≈ 16.9 µM); MIC (Proteus vulgaris): 16 µg/mL (≈ 33.9 µM); MIC [30]: 4 µg/mL (≈ 8.46 µM); MIC (Citrobacter freundii): 4 µg/mL (≈ 8.46 µM)
3 | CCNC(=N)c1ccc2cc(-c3ccc(-c4cc5ccc(C(=N)NCC)cc5[nH]4)cc3)[nH]c2c1 | 0.5 µg/mL (≈ 1.11 µM) | 1 µg/mL (≈ 2.23 µM) | 1 µg/mL (≈ 2.23 µM) | 1 µg/mL (≈ 2.23 µM) | 1 µg/mL (≈ 2.23 µM) | 2 µg/mL (≈ 4.46 µM) | 1 µg/mL (≈ 2.23 µM) | 2 µg/mL (≈ 4.46 µM) | 8 µg/mL (≈ 17.8 µM) | 16 µg/mL (≈ 35.7 µM) | 32 µg/mL (≈ 71.3 µM) | 32 µg/mL (≈ 71.3 µM) | 32 µg/mL (≈ 71.3 µM) | 8 µg/mL (≈ 17.8 µM) | 64 µg/mL (≈ 143 µM) | 16 µg/mL (≈ 35.7 µM) | > 64 µg/mL | 4.1 µg/mL (≈ 9.14 µM) | 1 µg/mL (≈ 2.23 µM) | 1 µg/mL (≈ 2.23 µM) | MIC (Staphylococcus aureus [19]): 1 µg/mL (≈ 2.23 µM); MIC (Staphylococcus aureus [20]): 1 µg/mL (≈ 2.23 µM); MIC (Enterococcus faecalis [21]): 2 µg/mL (≈ 4.46 µM); MIC (Enterococcus faecalis [22]): 2 µg/mL (≈ 4.46 µM); MIC (Enterococcus faecium [23]): 1 µg/mL (≈ 2.23 µM); MIC (Escherichia coli [24]): 32 µg/mL (≈ 71.3 µM); MIC (Escherichia coli [25]): 16 µg/mL (≈ 35.7 µM); MIC (Klebsiella pneumoniae [26]): 16 µg/mL (≈ 35.7 µM); MIC (Klebsiella pneumoniae [27]): 16 µg/mL (≈ 35.7 µM); MIC (Pseudomonas aeruginosa [28]): 32 µg/mL (≈ 71.3 µM); MIC (Pseudomonas aeruginosa [29]): 32 µg/mL (≈ 71.3 µM); MIC (Klebsiella aerogenes): 16 µg/mL (≈ 35.7 µM); MIC (Serratia marcescens): 32 µg/mL (≈ 71.3 µM); MIC (Providencia rettgeri): 32 µg/mL (≈ 71.3 µM); MIC (Proteus vulgaris): 64 µg/mL (≈ 143 µM); MIC [30]: 8 µg/mL (≈ 17.8 µM); MIC (Citrobacter freundii): 16 µg/mL (≈ 35.7 µM)
